Experimental data: article PMC10758951, “mRNA display reveals a class of high-affinity bromodomain-binding motifs that are not found in the human proteome” (The Journal of Biological Chemistry, 2023)

What was measured:
[1] = Peptide solubility (as observed on sample preparation); format: physicochemical; conditions: dissolved in water or experimental buffer; qualitative statement
Protocol: The concentrations of the peptides used in this study were determined by measuring absorbance at 205 nm ([21]) and NMR ([22]) quantification using a known concentration of 4,4-dimethyl-4-silapentane-1-sulfonic acid as a reference. Peptides were first dissolved in either water or experimental buffer, and measurements were made on the soluble peptide remaining in solution following removal insoluble peptide via centrifugation.

BRD3–BD2 = target: T1, BRD3–BD2 (Homo sapiens, UniProt Q15059); experiment: SPR binding of peptides to BET bromodomains; conditions: peptide flowed
T1 construct: BRD3 (BD1: 25–147; BD2: 307–419); His tag (N); biotinylation (Avi-type acceptor, vector pQE80L-Navi) (N); made in house; host or cells: Escherichia coli
Text: (§1) The BDs from human BRD2 (BD1: 65–194; BD2: 347–455), BRD3 (BD1: 25–147; BD2: 307–419), and BRD4 (BD1: 42–168; BD2: 348–464) were expressed in Escherichia coli from pQE80L-Navi (Qiagen) as N-terminally His-tagged and biotinylated proteins for SPR. For other experiments, they were expressed from pGEX-6P (Cytiva) as N-terminal glutathione-S-transferase-fusion proteins. Expression and purification, via affinity chromatography and size-exclusion chromatography, of unlabeled and uniformly ^15N-labeled proteins were carried out as described previously ([11]).
(§2) Measurements were conducted on a T200 (Cytiva) and data analyzed using the Biacore Insight Evaluation Software. Experiments were performed at 4 °C in multicycle kinetics mode and fit using the equilibrium steady state affinity model (1:1 Langmuir binding isotherm). For experiments measuring the binding of the 2AcK peptide, biotinylated BET BDs were immobilized on a biotin CAP chip (Cytiva) with a target density of ∼1000 to 2000 RU and peptide was flowed over the chip. A buffer comprising 20 mM Mes (pH 6.5), 150 mM NaCl, 0.05% (v/v) Tween-20 was used as the running buffer. For experiments measuring the binding of 1AcK.4E and 2AcK.4E, C-terminally biotinylated variants of the peptides were immobilized on a CM5 chip (Cytiva), which had been amine-coupled with streptavidin, to a target density of ∼50 to 100 RU and unlabeled BET BDs were flowed over the chip. A buffer comprising 20 mM Hepes (pH 7.5), 150 mM NaCl, and 0.05% (v/v) Tween-20 was used as the running buffer.

BRD4–BD2 = target: T2, BRD4–BD2 (Homo sapiens, UniProt O60885); experiment: SPR binding of peptides to BET bromodomains; conditions: SPR 4 °C; biotinylated BD immobilized on biotin CAP chip, peptide flowed; 20 mM Mes pH 6.5, 150 mM NaCl, 0.05% Tween-20; steady state 1:1 fit; geometric mean of minimum three measurements
T2 construct: BRD4 (BD1: 42–168; BD2: 348–464); His tag (N); biotinylation (Avi-type acceptor, vector pQE80L-Navi) (N); made in house; host or cells: Escherichia coli
Text: as §1, §2

BRD2–BD2 = target: T3, BRD2–BD2 (Homo sapiens, UniProt P25440); experiment: SPR binding of peptides to BET bromodomains; conditions: peptide flowed
T3 construct: human BRD2 (BD1: 65–194; BD2: 347–455); His tag (N); biotinylation (Avi-type acceptor, vector pQE80L-Navi) (N); made in house; host or cells: Escherichia coli
Text: as §1, §2

[2] = target: BRD3–BD1, BRD4–BD1, and BRD2–BD1; experiment: SPR, stated jointly for the BD1 domains; format: binding, human; conditions: range over BRD3–BD1, BRD4–BD1 and BRD2–BD1; BD immobilized, peptide flowed; equilibrium steady state affinity analysis; read-out: Affinities (KD) for the three BD1 domains, SPR
Text: as §1
Measurements were conducted on a T200 (Cytiva) and data analyzed using the Biacore Insight Evaluation Software. Experiments were performed at 4 °C in multicycle kinetics mode and fit using the equilibrium steady state affinity model (1:1 Langmuir binding isotherm). For experiments measuring the binding of the 2AcK peptide, biotinylated BET BDs were immobilized on a biotin CAP chip (Cytiva) with a target density of ∼1000 to 2000 RU and peptide was flowed over the chip. A buffer comprising 20 mM Mes (pH 6.5), 150 mM NaCl, 0.05% (v/v) Tween-20 was used as the running buffer. […]

BRD3–BD1 = target: T4, BRD3–BD1 (Homo sapiens, UniProt Q15059); experiment: Isothermal titration calorimetry (ITC); conditions: ITC 25 °C, BRD3–BD1 titrated into peptide; fit to binding isotherm
T4 construct: BRD3 (BD1: 25–147; BD2: 307–419); His tag (N); biotinylation (Avi-type acceptor, vector pQE80L-Navi) (N); made in house; host or cells: Escherichia coli
Text: as §1
The affinities and stoichiometry for the interaction of BRD3–BD1 with 2AcK and 2AcK.4E peptides were determined using a MicroCal PEAQ ITC (Malvern Instruments). Titrations of BRD3–BD1 (1 mM) into peptide (25–50 μM) were carried out at 25 °C using a 0.2 μl initial injection and 20 to 24 subsequence 1 to 3 μl injections. Data were analyzed using Malvern MicroCal PEAQ ITC Software, using a protein into buffer baseline correction and fitted with a one-site binding model.

[3] = Fig. 2A, one titration, fit to 1:1 binding model, BD immobilized, Mes pH 6.5, 4 °C
[4] = SPR 4 °C, biotinylated BD immobilized on biotin CAP chip, 20 mM Mes pH 6.5, 150 mM NaCl, 0.05% Tween-20, steady state 1:1 fit, geometric mean of minimum three measurements

T1 sequence (Q15059 307-419): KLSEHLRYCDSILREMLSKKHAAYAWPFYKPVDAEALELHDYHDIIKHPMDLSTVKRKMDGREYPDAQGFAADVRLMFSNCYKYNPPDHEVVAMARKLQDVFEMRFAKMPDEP
T3 sequence (P25440 347-455): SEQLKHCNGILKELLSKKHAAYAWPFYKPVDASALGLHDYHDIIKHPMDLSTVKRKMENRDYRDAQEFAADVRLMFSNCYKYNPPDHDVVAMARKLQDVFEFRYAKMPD
T4 sequence (Q15059 25-147): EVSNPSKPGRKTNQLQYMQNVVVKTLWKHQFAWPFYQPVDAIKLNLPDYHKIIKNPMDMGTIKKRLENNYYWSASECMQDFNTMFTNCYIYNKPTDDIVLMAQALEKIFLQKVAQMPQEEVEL

Substance | Solubility of the peptide (in words) [1] | KD on plot, typical SPR titration, BRD3-BD2 (BRD3–BD2; [3]) | KD (SPR) BRD3–BD2 (BRD3–BD2; [4]) | KD (SPR) BRD4–BD2 (BRD4–BD2) | KD on plot, typical SPR titration, BRD2-BD2 (BRD2–BD2; [3]) | KD (SPR) BRD2–BD2 (BRD2–BD2; [4]) | Kd [2] [nM] | N value (stoichiometry) from ITC fit (BRD3–BD1)
ALLLAKLYHF [1AcK] | not soluble at concentrations high enough to allow measurements to be made | – | – | – | – | – | – | –
Ac-AQRSLK(Ac)LLK(Ac)HLYH-NH2 (C-terminus assumed) [2AcK] | slightly more soluble | No binding | no measurable binding | a small degree of binding observed | No binding | no measurable binding | 1000 to 2000 | ~2.5
